Test results taken from patent US10662164B2, “Non-beta lactam antibiotics” (University of Notre Dame du Lac, priority 2014, dated 2020).
Values after ≈ are worked out from the molar mass of the structure shown. Where two headings read alike, the source gives them in different places.

Experiments:
[1] = tested on: S. aureus ATCC 29213; experiment: MIC determination; assay type: cell-based, Staphylococcus aureus; conditions: for MIC: Staphylococcus aureus; for antibacterial activity in words (SAR, ring A derivatives): S. aureus ATCC 29213, compounds of Schemes 3-4
[2] = tested on: E. faecium NCTC 7171; experiment: MIC determination; assay type: cell-based, Enterococcus faecium; conditions: for MIC: Enterococcus faecium
[3] = ATCC29213, Table 3.1 and SAR text, compounds of Schemes 2-4, read-out: S. aureus ATCC 29213 MIC
[4] = NCTC7171, Table 3.1, compounds of Schemes 2-4, read-out: E. faecium NCTC 7171 MIC
[5] = ATCC29213, read-out: S. aureus ATCC 29213 MIC
[6] = NCTC7171, read-out: E. faecium NCTC 7171 MIC
[7] = Table 3.1, compounds of Schemes 2-4

Fc1ccc(Oc2ccc(-c3noc(-c4ccc(Br)cc4)n3)cc2)cc1 [Compound 81c]
MIC [1, 3]: > 128 µg/mL | MIC [2, 4]: > 128 µg/mL

CCOP(=O)(OCC)c1ccc(-c2nc(-c3ccc(Oc4ccc(F)cc4)cc3)no2)cc1 [Compound 85c]
MIC [1, 5]: > 128 µg/mL | MIC [2, 6]: > 128 µg/mL

CS(=O)(=O)Nc1ccc(-c2nc(-c3ccc(Oc4ccc(C(F)(F)F)cc4)cc3)no2)cc1 [Compound 86b]
MIC [1, 3]: > 128 µg/mL | MIC [2, 4]: 32 µg/mL (≈ 67.3 µM)

NS(=O)(=O)c1ccc(-c2nc(-c3ccc(Oc4ccc(C(F)(F)F)cc4)cc3)no2)cc1 [Compound 87b]
MIC [1, 3]: > 128 µg/mL | MIC [2, 4]: 128 µg/mL (≈ 277 µM)

NS(=O)(=O)c1ccc(-c2nc(-c3ccc(Oc4ccc(F)cc4)cc3)no2)cc1 [Compound 87c]
MIC [1, 3]: > 128 µg/mL | MIC [2, 4]: > 128 µg/mL

NC(=O)c1ccc(-c2nc(-c3ccc(Oc4ccc(F)cc4)cc3)no2)cc1 [Compound 88c]
antibacterial activity in words (SAR, ring A derivatives) [1]: failed to show significant activity | MIC [1, 3]: > 128 µg/mL | MIC [2, 4]: 64 µg/mL (≈ 171 µM)

O=C(O)c1ccc(-c2nc(-c3ccc(Oc4ccc(F)cc4)cc3)no2)cc1 [Compound 89c]
antibacterial activity in words (SAR, ring A derivatives) [1]: failed to show significant activity | MIC [1, 3]: > 128 µg/mL | MIC [2, 4]: 128 µg/mL (≈ 340 µM)

COC(=O)c1ccc(-c2nc(-c3ccc(Oc4ccc(F)cc4)cc3)no2)cc1 [Compound 90c]
antibacterial activity in words (SAR, ring A derivatives) [1]: failed to show significant activity | MIC [1, 3]: > 128 µg/mL | MIC [2, 4]: > 128 µg/mL

O=[N+]([O-])c1cc(-c2nc(-c3ccc(Oc4ccc(F)cc4)cc3)no2)ccc1O [Compound 91c]
antibacterial activity in words (SAR, ring A derivatives) [1]: failed to show significant activity | MIC [1, 3]: > 128 µg/mL | MIC [2, 4]: > 128 µg/mL

Nc1cc(-c2nc(-c3ccc(Oc4ccc(F)cc4)cc3)no2)ccc1O [Compound 92c]
antibacterial activity in words (SAR, ring A derivatives) [1]: failed to show significant activity | MIC [1, 3]: > 128 µg/mL | MIC [2, 4]: 128 µg/mL (≈ 352 µM)

COc1cc(-c2nc(-c3ccc(Oc4ccccc4)cc3)no2)ccc1N [Compound 94a]
MIC [1, 3]: > 128 µg/mL | MIC [2, 4]: > 128 µg/mL

Oc1cccc(-c2nc(-c3ccc(Oc4ccccc4)cc3)no2)c1 [Compound 95a]
antibacterial activity in words (SAR, ring A derivatives) [1]: failed to show significant activity | MIC [1, 3]: > 128 µg/mL | MIC [2, 4]: > 128 µg/mL

Oc1cc(-c2nc(-c3ccc(Oc4ccccc4)cc3)no2)ccc1I [Compound 96a]
antibacterial activity in words (SAR, ring A derivatives) [1]: failed to show significant activity | MIC [1, 3]: > 128 µg/mL | MIC [2, 4]: 32 µg/mL (≈ 70.1 µM)

Oc1ccccc1-c1nc(-c2ccc(Oc3ccccc3)cc2)no1 [Compound 97a]
antibacterial activity in words (SAR, ring A derivatives) [1]: failed to show significant activity | MIC [1, 3]: > 128 µg/mL | MIC [2, 4]: > 128 µg/mL

Nc1ccc(-c2nc(-c3ccc(Oc4ccccc4)cc3)no2)c(O)c1 [Compound 98a]
MIC [1, 3]: > 128 µg/mL | MIC [2, 4]: > 128 µg/mL

COc1ccc(-c2nc(-c3ccc(Oc4ccccc4)cc3)no2)cc1[N+](=O)[O-] [Compound 99a]
MIC [1, 3]: > 128 µg/mL | MIC [2, 4]: 128 µg/mL (≈ 329 µM)

COc1ccc(-c2nc(-c3ccc(Oc4ccc(C(F)(F)F)cc4)cc3)no2)cc1[N+](=O)[O-] [Compound 99b]
MIC [1, 3]: > 128 µg/mL | MIC [2, 4]: > 128 µg/mL

COc1ccc(-c2nc(-c3ccc(Oc4ccc(F)cc4)cc3)no2)cc1[N+](=O)[O-] [Compound 99c]
MIC [1, 3]: > 128 µg/mL | MIC [2, 4]: > 128 µg/mL

COc1ccc(-c2nc(-c3ccc(Oc4ccccc4)cc3)no2)cc1N [Compound 100a]
MIC [1, 3]: > 128 µg/mL | MIC [2, 4]: > 128 µg/mL

COc1ccc(-c2nc(-c3ccc(Oc4ccc(C(F)(F)F)cc4)cc3)no2)cc1OC [Compound 101b]
MIC [1, 3]: > 128 µg/mL | MIC [2, 4]: > 128 µg/mL

COc1ccc(-c2nc(-c3ccc(Oc4ccc(F)cc4)cc3)no2)cc1OC [Compound 101c]
MIC [1, 3]: > 128 µg/mL | MIC [2, 4]: > 128 µg/mL

FC(F)(F)c1ccc(Oc2ccc(-c3noc(-c4cc[nH]n4)n3)cc2)cc1 [Compound 102b]
MIC [1, 3]: > 128 µg/mL | MIC [2, 4]: 64 µg/mL (≈ 172 µM)

Fc1ccc(Oc2ccc(-c3noc(-c4cc[nH]n4)n3)cc2)cc1 [Compound 102c]
MIC [1, 3]: > 128 µg/mL | MIC [2, 4]: 32 µg/mL (≈ 99.3 µM)

C[Si](C)(C)C#Cc1c[nH]nc1-c1nc(-c2ccc(Oc3ccc(C(F)(F)F)cc3)cc2)no1 [Compound 103b, 3-(4-(4-Trifluoromethyl)phenoxy)phenyl)-5-(4-((trimethylsilyl)ethynyl-1H-pyrazol-3-yl)-1,2,4-oxadiazole]
S. aureus ATCC 29213 MIC [1, 7]: >128 µg/mL | E. faecium NCTC 7171 MIC [2, 7]: >128 µg/mL

CCCCNc1c[nH]nc1-c1nc(-c2ccc(Oc3ccc(C(F)(F)F)cc3)cc2)no1 [Compound 104b]
antibacterial activity in words (SAR, ring A derivatives) [1]: did not extend | MIC [1, 3]: > 128 µg/mL | MIC [2, 4]: > 128 µg/mL

CCC(C)Nc1c[nH]nc1-c1nc(-c2ccc(Oc3ccc(C(F)(F)F)cc3)cc2)no1 (centres unmarked) [Compound 105b]
antibacterial activity in words (SAR, ring A derivatives) [1]: did not extend | MIC [1, 3]: > 128 µg/mL | MIC [2, 4]: 128 µg/mL (≈ 289 µM)

FC(F)(F)c1ccc(Oc2ccc(-c3noc(-c4n[nH]cc4NC4CCCCC4)n3)cc2)cc1 [Compound 106b]
antibacterial activity in words (SAR, ring A derivatives) [1]: did not extend | MIC [1, 3]: > 128 µg/mL | MIC [2, 4]: 128 µg/mL (≈ 273 µM)

FC(F)(F)c1ccc(Oc2ccc(-c3noc(-c4n[nH]cc4NC4CCCC4)n3)cc2)cc1 [Compound 107b]
antibacterial activity in words (SAR, ring A derivatives) [1]: did not extend | MIC [1, 3]: > 128 µg/mL | MIC [2, 4]: > 128 µg/mL

CC(C)(C)OC(=O)N1CCC(Nc2c[nH]nc2-c2nc(-c3ccc(Oc4ccc(C(F)(F)F)cc4)cc3)no2)CC1 [Compound 110b]
MIC [1, 3]: > 128 µg/mL | MIC [2, 4]: > 128 µg/mL

CCOP(=O)(OCC)c1c[nH]nc1-c1nc(-c2ccc(Oc3ccc(C(F)(F)F)cc3)cc2)no1 [Compound 111b]
MIC [1, 5]: > 128 µg/mL | MIC [2, 6]: > 128 µg/mL

Oc1nc(-c2ccc(Oc3ccccc3)cc2)no1 [Compound 112a]
antibacterial activity in words (SAR, ring A derivatives) [1]: abolishes activity | MIC [1, 3]: > 128 µg/mL | MIC [2, 4]: > 128 µg/mL

c1ccc(Oc2ccc(-c3noc(-c4ccncc4)n3)cc2)cc1 [Compound 114a]
antibacterial activity in words (SAR, ring A derivatives) [1]: No activity | MIC [1, 3]: > 128 µg/mL | MIC [2, 4]: 64 µg/mL (≈ 203 µM)

[O-][n+]1ccc(-c2nc(-c3ccc(Oc4ccccc4)cc3)no2)cc1 [Compound 115a]
antibacterial activity in words (SAR, ring A derivatives) [1]: No activity | MIC [1, 3]: > 128 µg/mL | MIC [2, 4]: 64 µg/mL (≈ 193 µM)

FC(F)(F)c1ccc(Oc2ccc(-c3noc(-c4nc[nH]n4)n3)cc2)cc1 [Compound 116b]
antibacterial activity in words (SAR, ring A derivatives) [1]: No activity | MIC [1, 3]: > 128 µg/mL | MIC [2, 4]: > 128 µg/mL

FC(F)(F)c1ccc(Oc2ccc(-c3noc(-c4cnn[nH]4)n3)cc2)cc1 [Compound 117b]
antibacterial activity in words (SAR, ring A derivatives) [1]: No activity | MIC [1, 3]: 16 µg/mL (≈ 42.9 µM) | MIC [2, 4]: > 128 µg/mL

CC(C)c1cc(-c2nc(-c3ccc(Oc4ccc(F)cc4)cc3)no2)[nH]n1 [Compound 119c]
antibacterial activity in words (SAR, ring A derivatives) [1]: No activity | MIC [1, 3]: > 128 µg/mL | MIC [2, 4]: 64 µg/mL (≈ 176 µM)

Oc1ccc(-c2nc(-c3ccc(Oc4ccc(C(F)(F)F)cc4)cc3)no2)cn1 [Compound 120b]
MIC [1, 3]: > 128 µg/mL | MIC [2, 4]: 32 µg/mL (≈ 80.1 µM)

Oc1ccc(-c2nc(-c3ccc(Oc4ccc(F)cc4)cc3)no2)cn1 [Compound 120c]
MIC [1, 3]: > 128 µg/mL | MIC [2, 4]: 64 µg/mL (≈ 183 µM)

Nc1cc(-c2nc(-c3ccc(Oc4ccc(C(F)(F)F)cc4)cc3)no2)cnc1O [Compound 121b]
MIC [1, 3]: > 128 µg/mL | MIC [2, 4]: 64 µg/mL (≈ 154 µM)

Nc1cc(-c2nc(-c3ccc(Oc4ccc(F)cc4)cc3)no2)cnc1O [Compound 121c]
MIC [1, 3]: > 128 µg/mL | MIC [2, 4]: 128 µg/mL (≈ 351 µM)
